Data reported in patent US10370338B2, “Benzazepine dicarboxamide compounds with tertiary amide function” (Hoffmann-La Roche Inc., priority 2016, dated 2019).

Legend:
human TLR8 = human TLR8 (Homo sapiens (Human), UniProt Q9NR97); assay: HEK-Blue human TLR8 cells NF-κB SEAP reporter assay; format: cell-based; details: stimulation for 20 hours
Excerpt: (§1) For TLR8 and TLR7 activity testing, HEK-Blue human TLR8 or TLR7 cells (Invivogen, San Diego, Calif., USA) are used, respectively. These cells are designed for studying the stimulation of human TLR8 or TLR7 by monitoring the activation of NF-κB. A SEAP (secreted embryonic alkaline phosphatase) reporter gene is placed under the control of the IFN-b minimal promoter fused to five NF-κB and AP-1-binding sites. Therefore the reporter expression is regulated by the NF-κB promoter upon stimulation of human TLR8 or TLR7 for 20 hours. The cell culture supernatant SEAP reporter activity was determined using Quanti Blue kit (Invivogen, San Diego, Ca, USA) at a wavelength of 640 nm, a detection medium that turns purple/blue in the presence of alkaline phosphatase. EC50 values were determined using Activity Base analysis (ID Business Solution, Limited).

human TLR7 = human TLR7 (Homo sapiens (Human), UniProt Q9NYK1); assay: HEK-Blue human TLR7 cells NF-κB SEAP reporter assay; format: cell-based; details: stimulation for 20 hours
human TLR7, sequence (Q9NYK1 27-1049): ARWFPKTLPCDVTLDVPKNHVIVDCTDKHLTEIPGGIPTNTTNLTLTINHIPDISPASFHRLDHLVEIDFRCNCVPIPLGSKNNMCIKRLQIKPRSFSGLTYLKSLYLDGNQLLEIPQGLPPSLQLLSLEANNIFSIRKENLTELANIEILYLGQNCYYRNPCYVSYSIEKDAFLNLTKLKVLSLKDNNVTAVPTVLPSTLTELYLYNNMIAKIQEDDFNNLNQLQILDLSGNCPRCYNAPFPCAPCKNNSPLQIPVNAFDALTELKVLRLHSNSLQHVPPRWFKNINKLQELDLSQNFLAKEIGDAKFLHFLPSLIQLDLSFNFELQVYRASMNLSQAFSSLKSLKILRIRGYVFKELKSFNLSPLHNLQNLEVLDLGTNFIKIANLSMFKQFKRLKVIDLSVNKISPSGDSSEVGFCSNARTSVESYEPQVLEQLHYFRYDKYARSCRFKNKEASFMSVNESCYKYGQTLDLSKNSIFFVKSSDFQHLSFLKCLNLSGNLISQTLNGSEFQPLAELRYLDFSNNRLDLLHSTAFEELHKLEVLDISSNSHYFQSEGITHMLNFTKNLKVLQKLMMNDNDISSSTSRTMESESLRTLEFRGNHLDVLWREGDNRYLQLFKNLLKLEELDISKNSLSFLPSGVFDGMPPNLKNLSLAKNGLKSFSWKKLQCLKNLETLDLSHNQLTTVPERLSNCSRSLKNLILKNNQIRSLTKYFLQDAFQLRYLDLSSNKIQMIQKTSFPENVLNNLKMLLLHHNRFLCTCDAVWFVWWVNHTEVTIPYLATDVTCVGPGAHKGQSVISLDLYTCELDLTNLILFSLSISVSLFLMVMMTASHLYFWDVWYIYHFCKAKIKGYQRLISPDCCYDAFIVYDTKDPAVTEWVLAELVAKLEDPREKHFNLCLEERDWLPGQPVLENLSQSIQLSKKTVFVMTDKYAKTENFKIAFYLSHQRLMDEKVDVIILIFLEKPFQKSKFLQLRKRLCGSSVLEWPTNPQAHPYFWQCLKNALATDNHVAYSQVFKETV
Excerpt: as §1

human TLR8, sequence (Q9NR97 27-1041): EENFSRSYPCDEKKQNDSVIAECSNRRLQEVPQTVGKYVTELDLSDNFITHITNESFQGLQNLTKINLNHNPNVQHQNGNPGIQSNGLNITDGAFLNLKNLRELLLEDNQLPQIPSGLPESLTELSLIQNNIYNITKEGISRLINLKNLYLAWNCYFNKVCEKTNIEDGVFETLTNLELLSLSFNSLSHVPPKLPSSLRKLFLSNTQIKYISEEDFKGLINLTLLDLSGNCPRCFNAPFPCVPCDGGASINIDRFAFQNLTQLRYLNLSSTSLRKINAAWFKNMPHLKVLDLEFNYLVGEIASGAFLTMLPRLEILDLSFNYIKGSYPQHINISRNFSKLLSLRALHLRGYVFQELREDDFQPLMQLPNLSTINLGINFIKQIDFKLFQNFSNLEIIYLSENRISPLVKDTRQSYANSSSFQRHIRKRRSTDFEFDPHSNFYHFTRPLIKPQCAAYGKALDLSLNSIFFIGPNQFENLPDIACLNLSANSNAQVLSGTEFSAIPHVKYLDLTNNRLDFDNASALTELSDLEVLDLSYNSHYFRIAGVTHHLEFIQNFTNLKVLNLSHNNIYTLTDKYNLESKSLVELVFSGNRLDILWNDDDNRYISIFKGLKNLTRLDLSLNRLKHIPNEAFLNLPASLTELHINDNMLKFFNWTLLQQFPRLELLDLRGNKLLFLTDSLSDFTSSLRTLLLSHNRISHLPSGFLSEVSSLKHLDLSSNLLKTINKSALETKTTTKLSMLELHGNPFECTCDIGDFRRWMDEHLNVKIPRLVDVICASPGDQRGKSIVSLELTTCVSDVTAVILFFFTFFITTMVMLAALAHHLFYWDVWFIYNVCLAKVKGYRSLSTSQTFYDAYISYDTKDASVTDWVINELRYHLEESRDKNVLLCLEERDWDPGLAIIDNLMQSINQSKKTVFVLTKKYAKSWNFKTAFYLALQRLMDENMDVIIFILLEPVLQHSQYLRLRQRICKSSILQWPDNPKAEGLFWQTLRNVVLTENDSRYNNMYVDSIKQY

| SMILES | EC50 (human TLR8) [nM] | EC50 (human TLR7) [nM] |
| --- | --- | --- |
| CCCN(CCC)C(=O)C1=Cc2ccc(C(=O)N3CC4(C3)CN(c3ccc(C)cc3)C4)cc2N=C(N)C1 [Example 1, 2-Amino-N,N-dipropyl-8-[6-(p-tolyl)-2,6-diazaspiro[3.3]heptane-2-carbonyl]-3H-1-benzazepine-4-carboxamide] | 5 | > 100000 |
| CCCN(CCC)C(=O)C1=Cc2ccc(C(=O)N3CCC(Nc4ccccc4)CC3)cc2N=C(N)C1 [Example 2, 2-Amino-8-(4-anilinopiperidine-1-carbonyl)-N,N-dipropyl-3H-1-benzazepine-4-carboxamide] | 6 | 7900 |
| CCCN(CCC)C(=O)C1=Cc2ccc(C(=O)N3CC(Nc4ccccc4)C3)cc2N=C(N)C1 [Example 3, 2-Amino-8-(3-anilinoazetidine-1-carbonyl)-N,N-dipropyl-3H-1-benzazepine-4-carboxamide] | 5 | 24000 |
| CCCN(CCC)C(=O)C1=Cc2ccc(C(=O)N3CC(CNc4ccccc4)C3)cc2N=C(N)C1 [Example 4, 2-Amino-8-[3-(anilinomethyl)azetidine-1-carbonyl]-N,N-dipropyl-3H-1-benzazepine-4-carboxamide] | 10 | 10000 |
| CCCN(CCC)C(=O)C1=Cc2ccc(C(=O)N3CCC(Nc4ccccc4)C3)cc2N=C(N)C1 (stereo not drawn) [Example 5, 2-Amino-8-(3-anilinopyrrolidine-1-carbonyl)-N,N-dipropyl-3H-1-benzazepine-4-carboxamide] | 4 | 14000 |
| CCCN(CCC)C(=O)C1=Cc2ccc(C(=O)N3CCN(c4ccccc4)CC3)cc2N=C(N)C1 [Example 6, 2-Amino-8-(4-phenylpiperazine-1-carbonyl)-N,N-dipropyl-3H-1-benzazepine-4-carboxamide] | 25 | 9000 |
| CCCN(CCC)C(=O)C1=Cc2ccc(C(=O)N3CC4(CCN(c5ccccc5)C4)C3)cc2N=C(N)C1 [Example 7, 2-Amino-8-(7-phenyl-2,7-diazaspiro[3.4]octane-2-carbonyl)-N,N-dipropyl-3H-1-benzazepine-4-carboxamide] | 10 | > 100000 |
| CCCN(CCC)C(=O)C1=Cc2ccc(C(=O)N3CCCC3)cc2N=C(N)C1 [Example 8, 2-Amino-N,N-dipropyl-8-(pyrrolidine-1-carbonyl)-3H-1-benzazepine-4-carboxamide] | 15 | 21000 |
| CCCN(CC1CC1)C(=O)C1=Cc2ccc(C(=O)N3CCC(Nc4ccccc4)CC3)cc2N=C(N)C1 [Example 9, 2-Amino-8-(4-anilinopiperidine-1-carbonyl)-N-(cyclopropylmethyl)-N-propyl-3H-1-benzazepine-4-carboxamide] | 20 | 18000 |
| CCCN(CCC)C(=O)C1=Cc2ccc(C(=O)N3CCN(Cc4ccccc4)CC3)cc2N=C(N)C1 [Example 10, 2-Amino-8-(4-benzylpiperazine-1-carbonyl)-N,N-dipropyl-3H-1-benzazepine-4-carboxamide] | 5 | 14000 |
| CCCN(CCC)C(=O)C1=Cc2ccc(C(=O)N3CC4CC(C3)N4c3ccccc3)cc2N=C(N)C1 [Example 12, 2-Amino-8-(6-phenyl-3,6-diazabicyclo[3.1.1]heptane-3-carbonyl)-N,N-dipropyl-3H-1-benzazepine-4-carboxamide] | 22 | 11000 |
| CCCN(CCC)C(=O)C1=Cc2ccc(C(=O)N3CCC4(CC3)CN(c3ccccc3)C4)cc2N=C(N)C1 [Example 13, 2-Amino-8-(2-phenyl-2,7-diazaspiro[3.5]nonane-7-carbonyl)-N,N-dipropyl-3H-1-benzazepine-4-carboxamide] | 7 | > 100000 |
| CCCN(CCC)C(=O)C1=Cc2ccc(C(=O)N3CC4(CCN(c5ccccc5)CC4)C3)cc2N=C(N)C1 [Example 14, 2-Amino-8-(7-phenyl-2,7-diazaspiro[3.5]nonane-2-carbonyl)-N,N-dipropyl-3H-1-benzazepine-4-carboxamide] | 9 | 33000 |
| CCCN(CCC)C(=O)C1=Cc2ccc(C(=O)N3CC4CCC(C3)N4c3ccccc3)cc2N=C(N)C1 [Example 15, 2-Amino-8-(8-phenyl-3,8-diazabicyclo[3.2.1]octane-3-carbonyl)-N,N-dipropyl-3H-1-benzazepine-4-carboxamide] | 10 | 16000 |
| CCCN(CCC)C(=O)C1=Cc2ccc(C(=O)N3CC4CN(c5ccccc5)C4C3)cc2N=C(N)C1 (stereo not drawn) [Example 16, 2-Amino-8-(6-phenyl-3,6-diazabicyclo[3.2.0]heptane-3-carbonyl)-N,N-dipropyl-3H-1-benzazepine-4-carboxamide] | 29 | 12000 |
| CCCN(CCC)C(=O)C1=Cc2ccc(C(=O)N3CC(NCc4ccccc4)C3)cc2N=C(N)C1 [Example 17, 2-Amino-8-[3-(benzylamino)azetidine-1-carbonyl]-N,N-dipropyl-3H-1-benzazepine-4-carboxamide] | 18 | 17000 |
| CCCN(CCC)C(=O)C1=Cc2ccc(C(=O)N3CCC(Nc4ccc(CN)cc4)C3)cc2N=C(N)C1 (stereo not drawn) [Example 18, 2-Amino-8-[3-[4-(aminomethyl)anilino]pyrrolidine-1-carbonyl]-N,N-dipropyl-3H-1-benzazepine-4-carboxamide] | 31 | > 100000 |
| CCCN(CCC)C(=O)C1=Cc2ccc(C(=O)N3CCC(NCc4ccccc4)C3)cc2N=C(N)C1 (stereo not drawn) [Example 19, 2-Amino-8-[3-(benzylamino)pyrrolidine-1-carbonyl]-N,N-dipropyl-3H-1-benzazepine-4-carboxamide] | 14 | 6600 |
| CCCN(CCC)C(=O)C1=Cc2ccc(C(=O)N3CCC(CNc4ccccc4)CC3)cc2N=C(N)C1 [Example 20, 2-amino-8-[4-(anilinomethyl)piperidine-1-carbonyl]-N,N-dipropyl-3H-1-benzazepine-4-carboxamide] | 20 | 10000 |
| CCCN(CCC)C(=O)C1=Cc2ccc(C(=O)N3CCC(CNc4ccccc4)C3)cc2N=C(N)C1 (stereo not drawn) [Example 21, 2-Amino-8-[3-(anilinomethyl)pyrrolidine-1-carbonyl]-N,N-dipropyl-3H-1-benzazepine-4-carboxamide] | 9 | 6980 |
| C/C=C/COC1CN(C(=O)c2ccc3c(c2)N=C(N)CC(C(=O)N(CCC)CCC)=C3)C1 [Example 22, 2-Amino-8-[3-[(E)-but-2-enoxy]azetidine-1-carbonyl]-N,N-dipropyl-3H-1-benzazepine-4-carboxamide] | 12 | 32000 |
| CCCN(CCC)C(=O)C1=Cc2ccc(C(=O)N3CCCC(Nc4ccccc4)C3)cc2N=C(N)C1 (stereo not drawn) [Example 23, 2-Amino-8-(3-anilinopiperidine-1-carbonyl)-N,N-dipropyl-3H-1-benzazepine-4-carboxamide] | 8 | 400 |
| CCCN(CCC)C(=O)C1=Cc2ccc(C(=O)N3CCCC(NCc4ccccc4)C3)cc2N=C(N)C1 (stereo not drawn) [Example 24, 2-Amino-8-[3-(benzylamino)piperidine-1-carbonyl]-N,N-dipropyl-3H-1-benzazepine-4-carboxamide] | 14 | 3100 |
| CCCCOC1CN(C(=O)c2ccc3c(c2)N=C(N)CC(C(=O)N(CCC)CCC)=C3)C1 [Example 25, 2-Amino-8-(3-butoxyazetidine-1-carbonyl)-N,N-dipropyl-3H-1-benzazepine-4-carboxamide] | 8 | 31100 |
